# Test results from patent US9399759B2, “Method for producing neurospheres” (Keio University, priority 2008, dated 2016).
# Assays:
# [1] = tested on: dedifferentiation factor-introduced fibroblasts; assay: Effect of cell death inhibitors on induction of differentiation into mouse neurospheres (Example 2); type: cell-based; settings: Day 20 of the culture, FIG. 4A
# Experimental: (§1) The dedifferentiation factor-introduced fibroblasts cultured as above were dissociated by washing with 0.25% trypsin EDTA, resuspended in 10 ml of DMEM/F-12 serum-free medium (1:1, Invitrogen; containing 0.6% D-glucose, 5 mM HEPES, 3 mM NaHCO3, 2 mM glutamine, 25 ug/ml insulin, 100 ug/ml transferrin, 20 nM progesterone, 60 uM putrescine and 30 nM sodium selenate) supplemented with LIF (recombinant human LIF; Chemi-Con, 100 U/ml) and FGF (PeproTech, 20 ng/ml) at the density of 50 cells/ul, seeded in bacterial plastic culture dishes, and cultured in suspension under the conditions of 37° C. and 5% CO2 with exchanging the culture media every 14 days. On Day 3 and Day 20 during the suspension culture, the states of the cells were observed.
# In order to examine the improvement of the efficiency for the induction of differentiation into neurospheres by cell death inhibitors of N-acetyl-L-cysteine (NAC) and 8-chlorophenylthio (pCPT-cAMP), a membrane-permeable analog of cAMP, media supplemented with either or both of 1 mM of NAC(Sigma) and 100 uM of pCPT-cAMP (Sigma) were used in the suspension culture as described in Example 1. Other procedures were followed in the same way as described in Example 1, and numbers of neurospheres on Day 20 of the culture were counted.
# human fibroblasts = assay: Effect of LIF, cAMP and Y27632 on number of human neurospheres formed (Example 2); type: cell-based; settings: media with cAMP in place of or in addition to LIF, or cAMP, FIG. 4B
# Experimental: as §1
# In the case of human fibroblasts, the culture media were supplemented with cAMP in place of or in addition to LIF or with cAMP, LIF and a ROCK inhibitor Y27632, and the number of the neurospheres obtained from 250000 cells was counted.
Compound,"number of neurospheres as compared to the Control Group ([1]; only NAC added, 1 mM)",effect on neurosphere formation (number of neurospheres obtained from 250000 cells) (human fibroblasts),"increase of number of neurospheres per 10 ml of the medium as compared to Control Group ([1]; only pCPT-cAMP added, 100 uM, adult mouse fibroblasts)"
"CC(=O)N[C@@H](CS)C(=O)O [NAC, N-acetyl-L-cysteine]",no difference was observed,–,–
C[C@@H](N)[C@H]1CC[C@H](C(=O)Nc2ccncc2)CC1 [Y27632],–,no effect,–
"Nc1ncnc2c1nc(Sc1ccc(Cl)cc1)n2[C@@H]1O[C@@H]2COP(=O)([O-])O[C@H]2[C@H]1O.[Na+] [pCPT-cAMP, 8-chlorophenylthio (pCPT-cAMP)]",–,additive effect,over 100 fold
LIF: recombinant human LIF; Chemi-Con; growth factor added to the medium,–,additive effect,–
